Source: US20240035092A1, “METHODS, KITS, AND SYSTEMS FOR PREDICTING PATIENT OUTCOMES” (SAPERE BIO, INC., priority 2020, published 2024)

Assays:
CIPN patients = details: cited from earlier work
[1] = tested on: patients diagnosed with early-stage breast cancer; test: CIPN risk prediction score built from the p16Age GAP regression model; design: species or system human; details: patient with a CIPN score of 11 (scale 0-20)
Procedure: Regression models were built by step-wise addition of variables such as co-morbidities, chronological age, p16, or p16Age GAP and interactions between the variables were also considered. […] In contrast, when p16Age GAP was used instead of p16 (Model 2), p16Age GAP was able to replace all co-morbidities, chronological age, and p16 as variables to yield the model with the similar fit (AUC 0.76, NPV 87%). The ROC curve depicted in FIG. 4 was calculated using Model 2. The p16Age GAP-containing model was a strong predictor of the risk of developing CIPN.
The data from the regression model shown in FIG. 4 was used to build a CIPN risk prediction score according to standard methods (see, e.g., Hurria, J. Clin Oncol. (2011) and Hurria J. Clin Oncology, (2016)). All variables were assigned a weight based on their R coefficients in the regression model and the sum of all weights was added to create a final risk score for each patient. For a CIPN risk model, the range was adjusted so the total score scale was 0-20, with a single value for each patient. […] In certain embodiments, this risk differential between regimens of similar efficacy can help guide regimen selection. […]

[2] = tested on: patients diagnosed with early-stage breast cancer; test: Grade 2 or higher CIPN diagnosed by a clinician (CTCAE-CIPN) during taxane chemotherapy; format: in vivo, human; details: adjuvant or neoadjuvant chemotherapy, at any point during chemotherapy, 89 patients on paclitaxel, 70 on docetaxel
Description: One hundred fifty-nine patients diagnosed with early-stage breast cancer and scheduled to undergo adjuvant or neoadjuvant chemotherapy treatment that included a taxane regimen (paclitaxel or docetaxel) were enrolled. To be enrolled in the study, each patient must have met all of the inclusion criteria. Inclusion criteria: women ages 21 or older with histologically confirmed Stage I-III breast cancer and scheduled for adjuvant or neoadjuvant chemotherapy. Venous blood samples were collected from each patient into an EDTA tube during the patient's consultation visit with the oncologist or at their first chemotherapy session before chemotherapy was administered. Additional blood samples were collected at the end of chemotherapy treatment for 124 of the initial 159 patients. Median age of patients at consent was 58 years (24-83 range), median p16 was 9.5 (6.8-11.6 range), and median p16Age GAP was −22 years (−94-37 range). T cells were isolated from blood samples and p16 expression levels were calculated as described in Example 1.
Development of grade 2 or higher CIPN as diagnosed by a clinician (CTCAE-CIPN) at any point during chemotherapy was an endpoint of the study. […]

[3] = tested on: advanced breast cancer, hormone receptor-positive, HER2-negative; test: Time to progression on CDK4/6i treatment; format: in vivo, human; details: Palbociclib with letrozole or fulvestrant
Description: Six patients diagnosed with advanced breast cancer who were hormone receptor-positive, HER2-negative, were enrolled into a study and received a CDK4/6 inhibitor, Palbociclib, in combination with hormone-based therapy (letrozole or fulvestrant). Venous blood samples were collected from each patient into an EDTA tube prior to CDK4/6i administration, and at approximately 3 and 6 months (see FIG. 15 for timing) after the start of drug administration. T cells were isolated from blood samples and p16 expression levels were calculated as described in Example 1. Patients were followed to determine how long they received CDK4/6i treatment before becoming resistant to CDK4/6i and their cancer began to progress again (time to progression).

risk of CIPN [1] | patients who developed grade 2 or higher CIPN [2] | Structure (SMILES) | also measured
 |  | CNCC[C@H](Oc1cccc2ccccc12)c1cccs1 [Duloxetine] | decrease in pain score, on average (CIPN patients; CIPN patients, improvement derived primarily from patients who received platinum-containing agents): one; benefit on CIPN pain (CIPN patients; patients receiving taxanes): no clear benefit
9% | 10% | CC(=O)O[C@@]12CO[C@@H]1C[C@H](O)[C@@]1(C)C(=O)[C@H](O)C3=C(C)[C@@H](OC(=O)[C@H](O)[C@@H](NC(=O)OC(C)(C)C)c4ccccc4)C[C@@](O)([C@@H](OC(=O)c4ccccc4)[C@H]21)C3(C)C [docetaxel] | 
50% | 46% | CC(=O)O[C@H]1C(=O)[C@@]2(C)[C@H]([C@H](OC(=O)c3ccccc3)[C@]3(O)C[C@H](OC(=O)[C@H](O)[C@@H](NC(=O)c4ccccc4)c4ccccc4)C(C)=C1C3(C)C)[C@]1(OC(C)=O)CO[C@@H]1C[C@@H]2O [paclitaxel] | 
 |  | CC(=O)c1c(C)c2cnc(Nc3ccc(N4CCNCC4)cn3)nc2n(C2CCCC2)c1=O [CDK 4/6i, Palbociclib] | time to progression (resistance to CDK 4/6i treatment) ([3]; four patients whose p16 expression did not increase above measurement precision): 35-50 months; time to progression (resistance to CDK 4/6i treatment) ([3]; two patients whose p16 expression increased above measurement precision after treatment): 10-20 months
